Experimental findings from patent US20120220564A1, “SELECTIVE CALCIUM CHANNEL MODULATORS” (Zalicus Pharmaceuticals Ltd., priority 2009, published 2012) are described below.

Data set [1] deals with T1, α1G (CaV 3.1) (Homo sapiens, UniProt O43497).
T1 construct: expressed in transfected cells; host or cells: HEK 293
As to the kind of experiment: T-type calcium channel block, whole cell patch clamp. Type of data set: cell-based. Conditions: HEK cells, mainly non-inactivated protocol; values above 10,000 nM represented as 10000. As to the method:
(§1) T-type calcium channel blocking activity was assayed in human embryonic kidney cells, HEK 293 (Invitrogen), stably transfected with the T-type calcium channel subunits. Briefly, cells were cultured in Dulbecco's modified eagle medium (DMEM) supplemented with 10% fetal bovine serum, 200 U/ml penicillin, and 0.2 mg/mL streptomycin at 37° C. with 5% CO2. At 85% confluency, cells were split with 0.25% trypsin/1 mM EDTA and plated at 10% confluency on glass coverslips. At 12 hours, the medium was replaced, and the cells stably transfected using a standard calcium phosphate protocol and the appropriate calcium channel cDNA's. Fresh DMEM was supplied, and the cells transferred to 28° C./5% CO2. Cells were incubated for 1 to 2 days prior to whole cell recording.
(§2) Standard patch-clamp techniques were employed to identify blockers of T-type currents. Briefly, previously described HEK cell lines stably expressing human α1G, α1H and α1I T-type channels were used for all the recordings (passage #: 4-20, 37° C., 5% CO2). Whole cell patch clamp experiments were performed using an Axopatch 200B amplifier (Axon Instruments, Burlingame, Calif.) linked to a personal computer equipped with pCLAMP software. Data were analyzed using Clampfit (Axon Instruments) and SigmaPlot 4.0 (Jandel Scientific). To obtain T-type currents, plastic dishes containing semi-confluent cells were positioned on the stage of a ZEISS AXIOVERT S100 microscope after replacing the culture medium with external solution (Table 2). Whole-cell patches were obtained using pipettes (borosilicate glass with filament, O.D.: 1.5 mm, I.D.: 0.86 mm, 10 cm length), fabricated on a SUTTER P-97 puller with resistance values of ˜5 MΩ (Table 3).
(§3) T-type currents were reliably obtained by using two voltage protocols:
(§4) In the non-inactivating protocol, the holding potential is set at −110 mV and with a pre-pulse at −100 mV for 1 second prior to the test pulse at −40 mV for 50 ms. In the inactivation protocol, the pre-pulse is at approximately −85 mV for 1 second, which inactivates about 15% of the T-type channels (Scheme 1).
(§5) Test compounds were dissolved in external solution, 0.1-0.01% DMSO. After ˜10 minutes rest, they were applied by gravity close to the cell using a WPI microfil tubing. The “non-inactivated” pre-pulse was used to examine the resting block of a compound. The “inactivated” protocol was employed to study voltage-dependent block. However, the initial data shown below were mainly obtained using the non-inactivated protocol only. IC50 values are shown for various compounds of the invention in Table 4. […] In Table 4, empty cells indicate that inhibition by the compound was not detected.
Background: In patch-clamp work, channel activity is measured electrically.

In data set [2] the target is T2, α1H (CaV 3.2) (Homo sapiens, UniProt O95180).
T2 construct: expressed in transfected cells; host or cells: HEK 293
T2 sequence (O95180 whole entry): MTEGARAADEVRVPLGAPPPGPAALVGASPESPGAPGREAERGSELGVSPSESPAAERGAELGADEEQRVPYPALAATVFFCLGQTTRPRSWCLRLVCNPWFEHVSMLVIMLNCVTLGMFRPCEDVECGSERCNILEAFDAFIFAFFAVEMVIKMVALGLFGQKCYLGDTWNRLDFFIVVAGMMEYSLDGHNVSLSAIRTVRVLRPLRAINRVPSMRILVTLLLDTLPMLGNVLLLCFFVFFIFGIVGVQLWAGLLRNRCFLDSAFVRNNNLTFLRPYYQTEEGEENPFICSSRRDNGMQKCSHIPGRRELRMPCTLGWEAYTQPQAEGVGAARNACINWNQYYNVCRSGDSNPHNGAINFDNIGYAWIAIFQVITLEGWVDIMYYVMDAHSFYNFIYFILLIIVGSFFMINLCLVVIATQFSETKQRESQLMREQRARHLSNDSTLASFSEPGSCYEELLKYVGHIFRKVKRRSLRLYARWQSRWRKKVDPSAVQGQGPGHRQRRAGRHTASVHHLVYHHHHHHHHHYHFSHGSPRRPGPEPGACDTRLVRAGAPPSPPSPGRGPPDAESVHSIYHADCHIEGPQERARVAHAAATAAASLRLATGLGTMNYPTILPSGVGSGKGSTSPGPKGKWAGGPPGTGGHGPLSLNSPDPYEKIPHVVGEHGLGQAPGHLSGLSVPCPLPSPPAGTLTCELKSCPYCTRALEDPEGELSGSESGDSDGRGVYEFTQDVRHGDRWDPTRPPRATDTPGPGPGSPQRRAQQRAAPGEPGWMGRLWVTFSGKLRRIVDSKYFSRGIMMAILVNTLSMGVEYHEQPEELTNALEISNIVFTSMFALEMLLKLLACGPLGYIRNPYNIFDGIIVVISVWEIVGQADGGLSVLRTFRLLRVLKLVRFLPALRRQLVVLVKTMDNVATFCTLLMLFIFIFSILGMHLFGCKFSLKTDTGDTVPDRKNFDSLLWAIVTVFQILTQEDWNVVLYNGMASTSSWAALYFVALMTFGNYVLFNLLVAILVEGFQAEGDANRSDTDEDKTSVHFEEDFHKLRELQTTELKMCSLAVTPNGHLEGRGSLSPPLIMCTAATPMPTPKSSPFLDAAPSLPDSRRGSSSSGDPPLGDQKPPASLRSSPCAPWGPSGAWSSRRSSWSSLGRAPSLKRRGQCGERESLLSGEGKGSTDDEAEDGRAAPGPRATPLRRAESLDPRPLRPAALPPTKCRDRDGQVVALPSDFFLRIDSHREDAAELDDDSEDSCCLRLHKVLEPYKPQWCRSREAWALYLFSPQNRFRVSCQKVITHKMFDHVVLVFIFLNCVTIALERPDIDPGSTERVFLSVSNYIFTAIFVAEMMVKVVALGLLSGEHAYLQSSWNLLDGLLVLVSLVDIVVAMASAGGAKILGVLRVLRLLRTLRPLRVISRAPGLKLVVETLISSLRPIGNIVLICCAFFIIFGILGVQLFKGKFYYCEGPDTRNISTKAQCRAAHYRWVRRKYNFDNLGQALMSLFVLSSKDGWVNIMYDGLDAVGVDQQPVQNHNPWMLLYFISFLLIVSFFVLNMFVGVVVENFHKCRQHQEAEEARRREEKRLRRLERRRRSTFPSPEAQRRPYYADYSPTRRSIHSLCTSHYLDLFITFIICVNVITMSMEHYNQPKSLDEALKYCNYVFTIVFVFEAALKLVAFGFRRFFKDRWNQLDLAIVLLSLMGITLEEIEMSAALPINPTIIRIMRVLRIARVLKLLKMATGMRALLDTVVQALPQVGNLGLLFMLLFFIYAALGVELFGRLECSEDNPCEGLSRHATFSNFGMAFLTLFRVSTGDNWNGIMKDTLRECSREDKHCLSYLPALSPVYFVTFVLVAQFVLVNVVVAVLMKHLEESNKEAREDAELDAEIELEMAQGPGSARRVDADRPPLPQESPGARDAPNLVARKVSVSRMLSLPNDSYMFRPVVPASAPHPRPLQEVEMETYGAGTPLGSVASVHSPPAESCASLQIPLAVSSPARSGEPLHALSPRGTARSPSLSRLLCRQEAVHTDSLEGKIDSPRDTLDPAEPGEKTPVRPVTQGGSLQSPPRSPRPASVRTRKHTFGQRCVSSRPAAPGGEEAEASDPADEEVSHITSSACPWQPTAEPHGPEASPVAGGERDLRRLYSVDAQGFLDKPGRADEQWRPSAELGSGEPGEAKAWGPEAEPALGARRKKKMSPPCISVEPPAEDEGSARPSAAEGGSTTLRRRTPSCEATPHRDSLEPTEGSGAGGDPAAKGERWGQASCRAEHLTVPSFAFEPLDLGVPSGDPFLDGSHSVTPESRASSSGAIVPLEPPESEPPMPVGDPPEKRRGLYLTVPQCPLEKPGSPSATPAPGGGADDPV
The description is as above. Type of data set: cell-based. Conditions: HEK cells, mainly non-inactivated protocol; values above 10,000 nM represented as 10000. As to the method: as §1, §2, §3, §4, §5

The test system of data set [3] is minimal muscular or neurological impairment (rotarod). Kind of data set: Mouse rotarod assay. Type of data set: in vivo, mice. As to the method:
To assess a compound's undesirable side effects (toxicity), animals can be monitored for overt signs of impaired neurological or muscular function. In mice, the rotarod procedure (Dunham and Miya, J. Am. Pharmacol. Assoc. 46:208-209 (1957)) is used to disclose minimal muscular or neurological impairment (MMI). When a mouse is placed on a rod that rotates at a speed of 6 rpm, the animal can maintain its equilibrium for long periods of time. The animal is considered toxic if it falls off this rotating rod three times during a 1-min period.
In general terms: The rotarod test checks motor coordination on a turning rod.

Data set [4] concerns Rat SNL tactile allodynia. Kind of data set: L5/L6 spinal nerve ligation (SNL) Chung pain model, tactile allodynia (von Frey). Conditions: for % Antiallodynia (Mean ± SD): 100 mg/kg PO, n = 7-8. Type of data set: in vivo. An excerpt: The Spinal Nerve Ligation is an animal model representing peripheral nerve injury generating a neuropathic pain syndrome. In this model experimental animals develop the clinical symptoms of tactile allodynia and hyperalgesia. L5/L6 Spinal nerve ligation (SNL) injury was induced using the procedure of Kim and Chung (Kim et al., Pain 50:355-363 (1992)) in male Sprague-Dawley rats (Harlan; Indianapolis, Ind.) weighing 200 to 250 grams.
Anaesthesia was induced with 2% isofluorane in O2 at 2 L/min and maintained with 0.5% isofluorane in O2. Rats were then shaved and aseptically prepared for surgeries. A 2 cm paraspinal incision was made at the level of L4-S2. L4/L5 was exposed by removing the transverse process above the nerves with a small rongeur. The L5 spinal nerve is the larger of the two visible nerves below the transverse process and lies closest to the spine. The L6 spinal nerve is located beneath the corner of the slope bone. A home-made glass Chung rod was used to hook L5 or L6 and a pre-made slip knot of 4.0 silk suture was placed on the tip of the rod just above the nerve and pulled underneath to allow for the tight ligation. The L5 and L6 spinal nerves were tightly ligated distal to the dorsal root ganglion. The incision was closed, and the animals were allowed to recover for 5 days.
Sham control rats underwent the same operation and handling as the experimental animals, but without SNL.
Prior to initiating drug delivery, baseline behavioural testing data is obtained. At selected times after infusion of the Test or Control Article behavioural data can then be collected again.
The assessment of tactile allodynia consisted of measuring the withdrawal threshold of the paw ipsilateral to the site of nerve injury in response to probing with a series of calibrated von Frey filaments (innocuous stimuli). Animals were acclimated to the suspended wire-mesh cages for 30 min before testing. Each von Frey filament was applied perpendicularly to the plantar surface of the ligated paw of rats for 5 sec. A positive response was indicated by a sharp withdrawal of the paw. For rats, the first testing filament is 4.31. Measurements were taken before and after administration of test articles. […] The protocol was repeated until three changes in behaviour were determined (“up and down” method) (Chaplan et al., J. Neurosci. Methods 53:55-63 (1994)). The 50% paw withdrawal threshold was determined as (10^[Xf+kδ])/10,000, where Xf=the value of the last von Frey filament employed, k=Dixon value for the positive/negative pattern, and δ=the logarithmic difference between stimuli. The cut-off values for rats were no less than 0.2 g and no higher than 15 g (5.18 filament); for mice no less than 0.03 g and no higher than 2.34 g (4.56 filament). A significant drop of the paw withdrawal threshold compared to the pre-treatment baseline is considered tactile allodynia.

For data set [5], the system named is 6 Hz psychomotor seizure. Kind of data set: 6 Hz psychomotor seizure model of partial epilepsy. Type of data set: in vivo, mice. Also on record: concentration or dose not given beside the values. An excerpt: Compounds can also be evaluated for the protection against seizures induced by a 6 Hz, 0.2 ms rectangular pulse width of 3 s duration, at a stimulus intensity of 32 mA (CC97) applied to the cornea of male CF1 mice (20-30 g) according to procedures described by Barton et al, “Pharmacological Characterization of the 6 Hz Psychomotor Seizure Model of Partial Epilepsy,” Epilepsy Res. 47(3):217-27 (2001). Seizures are characterised by the expression of one or more of the following behaviours: stun, forelimb clonus, twitching of the vibrissae and Straub-tail immediately following electrical stimulation.

pIC50: −log10 of the molar value. Some results are limits rather than exact numbers.

T1 sequence (O43497 whole entry): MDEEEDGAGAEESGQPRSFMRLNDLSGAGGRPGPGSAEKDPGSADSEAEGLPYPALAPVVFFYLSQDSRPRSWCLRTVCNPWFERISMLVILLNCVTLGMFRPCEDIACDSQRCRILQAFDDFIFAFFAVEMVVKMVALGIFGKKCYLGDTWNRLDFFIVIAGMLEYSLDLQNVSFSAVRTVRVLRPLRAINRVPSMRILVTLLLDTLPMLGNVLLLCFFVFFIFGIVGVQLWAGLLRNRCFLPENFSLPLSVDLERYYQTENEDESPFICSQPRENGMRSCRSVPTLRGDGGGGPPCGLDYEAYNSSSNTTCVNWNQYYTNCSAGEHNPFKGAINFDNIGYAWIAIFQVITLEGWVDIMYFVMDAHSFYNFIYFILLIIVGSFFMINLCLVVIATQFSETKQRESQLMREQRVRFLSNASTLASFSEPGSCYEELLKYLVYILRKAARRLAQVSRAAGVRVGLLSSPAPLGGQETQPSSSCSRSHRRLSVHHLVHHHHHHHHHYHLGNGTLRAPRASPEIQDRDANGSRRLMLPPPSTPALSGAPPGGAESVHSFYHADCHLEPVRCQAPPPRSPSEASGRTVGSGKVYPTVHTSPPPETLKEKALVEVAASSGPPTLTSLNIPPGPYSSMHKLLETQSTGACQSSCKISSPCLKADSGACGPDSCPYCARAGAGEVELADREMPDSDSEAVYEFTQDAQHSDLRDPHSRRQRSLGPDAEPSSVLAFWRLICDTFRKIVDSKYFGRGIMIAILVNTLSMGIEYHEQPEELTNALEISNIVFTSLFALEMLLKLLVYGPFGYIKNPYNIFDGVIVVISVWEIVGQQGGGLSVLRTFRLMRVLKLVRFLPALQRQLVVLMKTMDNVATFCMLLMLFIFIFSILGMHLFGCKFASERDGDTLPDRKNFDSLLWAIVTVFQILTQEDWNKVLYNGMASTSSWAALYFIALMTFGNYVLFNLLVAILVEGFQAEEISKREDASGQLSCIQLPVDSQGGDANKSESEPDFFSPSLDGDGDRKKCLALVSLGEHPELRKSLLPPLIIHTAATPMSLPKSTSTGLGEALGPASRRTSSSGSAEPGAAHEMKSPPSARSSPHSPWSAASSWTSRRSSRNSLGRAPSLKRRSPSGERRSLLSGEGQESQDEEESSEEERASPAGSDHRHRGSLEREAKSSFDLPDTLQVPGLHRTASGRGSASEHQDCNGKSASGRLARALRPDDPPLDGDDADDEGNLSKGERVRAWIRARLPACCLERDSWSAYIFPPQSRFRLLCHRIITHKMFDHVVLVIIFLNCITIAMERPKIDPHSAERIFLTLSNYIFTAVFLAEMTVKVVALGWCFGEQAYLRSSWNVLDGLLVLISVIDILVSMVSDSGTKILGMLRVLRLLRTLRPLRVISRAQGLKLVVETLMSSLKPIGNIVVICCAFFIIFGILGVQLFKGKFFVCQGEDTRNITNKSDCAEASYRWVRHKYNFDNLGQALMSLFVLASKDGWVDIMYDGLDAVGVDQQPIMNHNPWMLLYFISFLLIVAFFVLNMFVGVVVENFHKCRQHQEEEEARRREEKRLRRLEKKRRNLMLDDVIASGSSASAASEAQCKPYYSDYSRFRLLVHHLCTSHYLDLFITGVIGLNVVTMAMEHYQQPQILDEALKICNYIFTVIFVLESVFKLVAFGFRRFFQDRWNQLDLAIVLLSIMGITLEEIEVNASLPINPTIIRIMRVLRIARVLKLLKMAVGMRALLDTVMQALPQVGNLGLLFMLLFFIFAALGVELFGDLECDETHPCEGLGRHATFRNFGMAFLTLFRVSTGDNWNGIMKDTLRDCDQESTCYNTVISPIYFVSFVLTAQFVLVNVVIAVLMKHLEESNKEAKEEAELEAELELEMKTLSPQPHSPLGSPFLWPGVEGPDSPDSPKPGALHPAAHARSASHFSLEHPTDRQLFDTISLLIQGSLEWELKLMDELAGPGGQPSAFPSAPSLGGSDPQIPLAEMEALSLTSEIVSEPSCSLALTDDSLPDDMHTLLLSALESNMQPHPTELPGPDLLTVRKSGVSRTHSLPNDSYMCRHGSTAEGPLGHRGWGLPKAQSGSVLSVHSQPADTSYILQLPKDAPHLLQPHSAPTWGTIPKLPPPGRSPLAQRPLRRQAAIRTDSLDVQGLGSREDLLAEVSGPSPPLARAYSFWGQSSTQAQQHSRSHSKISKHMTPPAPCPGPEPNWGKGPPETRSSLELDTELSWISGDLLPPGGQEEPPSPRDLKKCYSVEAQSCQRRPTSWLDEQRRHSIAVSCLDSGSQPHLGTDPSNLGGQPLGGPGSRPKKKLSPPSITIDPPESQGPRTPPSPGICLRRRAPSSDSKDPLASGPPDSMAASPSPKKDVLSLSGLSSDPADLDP

In general, pIC50 refers to the IC50 on a negative log10 scale, so that one unit is a factor of ten. With `O=C(CC1CCN(C(=O)C2CNCCO2)CC1)Nc1cc(C(F)(F)F)cc(C(F)(F)F)c1` (centres unmarked) [Compound 4, N-(3,5-bis(trifluoromethyl)phenyl)-2-(1-(morpholine-2-carbonyl)piperidin-4-yl)acetamide], the pIC50 in data set [1] is below 5.00; in data set [2], 5.66. Besides, the “Rotarod Assay (% impaired)” value in data set [3] (0.25 hr) is listed as 25%; in data set [3] (0.5 hr), 0%; in data set [3] (1 hr), 75%; in data set [3] (2 hr), 75%; in data set [3] (4 hr), 75%.
On to `NCC1(CC(=O)O)CCCCC1` [Gabapentin, gabapentin, reference compound], for which the “% Antiallodynia (Mean ± SD)” value stood at 73 ± 35 % in data set [4] (1 h), 90 ± 18 % in data set [4] (2 h) and 15 ± 8% in data set [4] (4 h). In addition, the “anti-allodynia performance compared with first study” value in data set [4] (second repetition of the study) is given as “performed similarly”.
Take `NC1(CC(=O)N2CCC(CC(=O)Nc3cc(C(F)(F)F)cc(C(F)(F)F)c3)CC2)CCCCC1` [Compound 8, 2-(1-(2-(1-aminocyclohexyl)acetyl)piperidin-4-yl)-N-(3,5-bis(trifluoromethyl)phenyl)acetamide]: the negative-log IC50 (pIC50) in data set [1] was below 5.00; in data set [2], 6.96. For the same molecule, the “Epilepsy 6 Hz (% Protected)” value in data set [5] (0.25 hr) was found to be 75%; in data set [5] (0.5 hr) it was 75%; in data set [5] (1 hr), 67%; in data set [5] (2 hr), 100%. Moreover, the “Rotarod Assay (% impaired)” value was 0% in data set [3] (0.25 hr); 50% in data set [3] (0.5 hr); 75% in data set [3] (1 hr); 100% in data set [3] (2 hr); 100% in data set [3] (4 hr).
Regarding `NC1(CC(=O)N2CCC(NC(=O)Nc3cc(C(F)(F)F)cc(C(F)(F)F)c3)CC2)CCCCC1` [Compound 75], the “Rat SNL tactile allodynia (% antiallodynia)” value in data set [4] (1 hr) came to 5%; in data set [4] (2 hr), 3%; in data set [4] (4 hr), 3%.
On to `NC1(CC(=O)N2CCC(O)(CC(=O)Nc3cc(C(F)(F)F)cc(C(F)(F)F)c3)CC2)CCCCC1` [Compound 54, 2-(1-(2-(1-aminocyclohexyl)acetyl)-4-hydroxypiperidin-4-yl)-N-(3,5-bis(trifluoromethyl)phenyl)acetamide], for which the pIC50 in data set [2] is 7.10. The “Rat SNL tactile allodynia (% antiallodynia)” value was 41% in data set [4] (1 hr), 39% in data set [4] (2 hr) and 45% in data set [4] (4 hr). The “Epilepsy 6 Hz (% Protected)” value in data set [5] (0.25 hr) was found to be 25%; in data set [5] (0.5 hr), 75%; in data set [5] (1 hr), 75%; in data set [5] (2 hr), 75%; in data set [5] (4 hr) it was 100%.
As for `CN1CCCCC1C(=O)N1CCC(CC(=O)Nc2cc(C(F)(F)F)cc(C(F)(F)F)c2)C1` (centres unmarked) [Compound 35, N-(3,5-bis(trifluoromethyl)phenyl)-2-(1-(1-methylpiperidine-2-carbonyl)pyrrolidin-3-yl)acetamide], the results for the pIC50 in data set [1] and in data set [2] were 5.22 and 5.71, respectively.
The matching figures for `N[C@H]1CCCC[C@@H]1C(=O)N1CCC(CC(=O)Nc2cc(C(F)(F)F)cc(C(F)(F)F)c2)C1` (stereo partly drawn) [Compound 33, 2-(1-((1S,2S)-2-aminocyclohexanecarbonyl)pyrrolidin-3-yl)-N-(3,5-bis(trifluoromethyl)phenyl)acetamide]: 5.28 and 6.59.
For the molecule `N[C@H]1CCCC[C@@H]1C(=O)N1CCC(CC(=O)Nc2cc(C(F)(F)F)cc(C(F)(F)F)c2)CC1` [Compound 7, 2-(1-((1S,2S)-2-aminocyclohexanecarbonyl)piperidin-4-yl)-N-(3,5-bis(trifluoromethyl)phenyl)acetamide], the pIC50 in data set [1] was below 5.00; in data set [2], 6.85.
The matching figures for `CC(C)(CN)C(=O)N1CCC(CC(=O)Nc2cc(C(F)(F)F)cc(C(F)(F)F)c2)CC1` [Compound 45, 2-(1-(3-amino-2,2-dimethylpropanoyl)piperidin-4-yl)-N-(3,5-bis(trifluoromethyl)phenyl)acetamide]: below 5.00 and 6.27.
For `N[C@H]1CCCC[C@@H]1C(=O)N1CCC(CC(=O)Nc2cc(Cl)cc(Cl)c2)CC1` (racemic) [Compound 17, trans-2-(1-(2-aminocyclohexanecarbonyl)piperidin-4-yl)-N-(3,5-dichlorophenyl)acetamide], in that order: below 5.00 and 6.16.
